Results as given in US9845319B2, “Amide substituted thiazoles as modulators of RORyt” (Janssen Pharmaceutica NV, priority 2014, dated 2017).

Assays:
[1] = system: IL-17 production by CD4 T cells; assay: Human Th17 Assay; assay type: cell-based; conditions: 72 h; IL-17 in supernatant, 3 days, human CD4+ T cells; read-out: Human Th17 Assay, IC50
Description: The human Th17 assay tests the effect of RORγt modulatory compounds on IL-17 production by CD4 T cells under conditions which favor Th17 differentiation. Total CD4^+ T cells were isolated from the peripheral blood mononuclear cells (PBMC) of healthy donors using a CD4^+ T cell isolation kit II, following the manufacturer's instructions (Miltenyi Biotec). […] 50 μL of compound at titrated concentrations in DMSO were added into each well at final DMSO concentration at 0.2%. Cells were incubated for 1 hour, then 50 μL of Th17 cell differentiation medium was added to each well. The final concentrations of antibodies and cytokines (R&D Systems) in differentiation medium were: 3×10^6/mL anti-CD3/CD28 beads (prepared using human T cell activation/expansion kit, Miltenyi Biotec), 10 μg/mL anti-IL4, 10 μg/mL anti-IFNγ, 10 ng/mL IL1β, 10 ng/mL IL23, 50 ng/mL IL6, 3 ng/mL TGFβ and 20 U/mL IL2. Cells were cultured at 37° C. and 5% CO2 for 3 days. Supernatants were collected and the accumulated IL-17 in culture was measured by using MULTI-SPOT® Cytokine Plate following manufacture's instruction (Meso Scale Discovery). The plate was read using Sector Imager 6000, and IL-17 concentration was extrapolated from the standard curve. The IC50s were determined by GraphPad.

full-length human RORγt [2] = biological target: T1, full-length human RORγt (Homo sapiens, UniProt P51449); assay: RORγt (full-length human) Reporter Assay, Conditions B or C; assay type: cell-based; conditions: for IC50: HEK293T cells, GAL4-DBD-RORγt, luciferase, read-out: RORγt (FL) Reporter Assay B or C, IC50; for inhibition at 6 µM: read-out: RORγt (FL) Reporter Assay B or C, % inhibition @ 6 μM, 6 μM compound
T1 construct: expressed in transfected cells; host or cells: HEK293T, transiently transfected with pCMV-BD-ROR
T1 sequence (P51449 1-497 isoform P51449-2): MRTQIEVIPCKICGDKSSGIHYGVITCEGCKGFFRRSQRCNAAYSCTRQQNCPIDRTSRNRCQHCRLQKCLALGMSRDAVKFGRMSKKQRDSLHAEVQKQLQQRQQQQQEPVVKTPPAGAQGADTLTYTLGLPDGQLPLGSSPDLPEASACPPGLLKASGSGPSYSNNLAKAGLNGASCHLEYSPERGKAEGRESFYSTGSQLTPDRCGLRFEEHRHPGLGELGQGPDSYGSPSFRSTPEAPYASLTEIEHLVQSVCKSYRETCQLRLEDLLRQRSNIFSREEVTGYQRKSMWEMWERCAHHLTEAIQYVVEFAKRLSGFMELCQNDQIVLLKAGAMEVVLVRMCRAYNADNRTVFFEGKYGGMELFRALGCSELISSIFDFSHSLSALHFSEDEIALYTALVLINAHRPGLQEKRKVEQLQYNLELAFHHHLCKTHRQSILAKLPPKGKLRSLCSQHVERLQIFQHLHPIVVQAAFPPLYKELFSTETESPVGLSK
Description: HEK293T cells were plated at 35,000 per well in 96-well plate in medium of DMEM with 10% FBS. […] After overnight (16 to 20 hours) incubation, media were removed and cells were lysed with 50 μL Glo Lysis Buffer (Promega) for 10-15 minutes followed by 10 minute incubation with 50 uL Dual Glo reagent (Promega) at room temperature. Firefly luciferase luminescence was measured using a BMG Pherastar plate reader. To each well, 50 uL Stop and Glo reagent was added and incubated for 10 minutes at room temperature. Renilla luminescence was measured using a BMG Pherastar plate reader. To calculate the effect of compounds on RORγt activity, firefly values were normalized against values of DMSO only and values of reference compound at saturating concentration, then further normalized against Renilla signals. IC50s were generated by plotting final Renilla normalized data against compound concentration and percent inhibition was calculated against DMSO control. […] HEK293T cells were plated at 8750 cells per well in 384-well plate in medium of DMEM with 10% FBS. […] After overnight (16 to 20 hours) incubation, media were removed and cells were lysed with 20 μL Glo Lysis Buffer (Promega) for 10-15 minutes followed by 10 minute incubation with 20 uL Dual Glo reagent (Promega) at room temperature. Firefly luciferase luminescence was measured using a BMG Pherastar plate reader. To each well, 20 uL Stop and Glo reagent was added and incubated for 10 minutes at room temperature. Renilla luminescence was measured using a BMG Pherastar plate reader. To calculate the effect of compounds on RORγt activity, firefly values were normalized against values of DMSO only and values of reference compound at saturating concentration, then further normalized against Renilla signals. IC50s were generated by plotting final Renilla normalized data against compound concentration and percent inhibition was calculated against DMSO control.

[3] = biological target: T2, human RORγt ligand binding domain (RORγt LBD) (Homo sapiens, UniProt P51449); assay: RORγt ThermoFluor assay; conditions: estimated from thermal shift concentration response
T2 construct: His-tag (N); TurboTEV protease cleavage site (ENLYFQG) (N); made in house; host or cells: E. coli (pHIS1, a modified pET expression vector)
T2 sequence (P51449 with tags, fused parts or gaps): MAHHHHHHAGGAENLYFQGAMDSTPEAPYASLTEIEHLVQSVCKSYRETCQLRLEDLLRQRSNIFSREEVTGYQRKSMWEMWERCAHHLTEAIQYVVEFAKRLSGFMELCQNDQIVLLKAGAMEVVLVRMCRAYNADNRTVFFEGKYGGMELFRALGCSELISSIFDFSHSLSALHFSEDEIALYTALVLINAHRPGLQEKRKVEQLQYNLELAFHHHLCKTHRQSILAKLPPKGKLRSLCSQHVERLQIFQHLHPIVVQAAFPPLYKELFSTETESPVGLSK
Outline: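 Thermal shift of RORγt LBD (0.065 mg/mL) with 60 μM 1,8-ANS in 100 mM Hepes pH 7.0, NaCl, GSH, 0.002% Tween-20, heated at 1° C/min. ANS fluorescence tracked versus temperature; ΔTm relative to DMSO wells. Compounds serially diluted 1:2 from 10 mM DMSO stock.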

full-length human RORγt [4] = biological target: T1, full-length human RORγt; assay: RORγt (full-length human) Reporter Assay, Conditions A; assay type: cell-based; conditions: for IC50: HEK293T cells, GAL4-DBD-RORγt, luciferase, read-out: RORγt (FL) Reporter Assay A, IC50; for inhibition at 2 µM: read-out: RORγt (FL) Reporter Assay A, % inhibition (* at 2 μM), 2 μM compound concentration (footnote *)
Outline: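 Reporter cells lysed after 16–20 h compound exposure; firefly and Renilla luciferase luminescence measured. Firefly signal normalised to DMSO and saturating reference compound, then to Renilla; IC50 from normalised data versus concentration, percent inhibition relative to DMSO.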

Which results are given for `C[C@H]1CCCN1C(=O)c1nc(-c2nnc(C(C)(C)O)o2)sc1-c1ccc(C(O)(C(F)(F)F)C(F)(F)F)cc1C(F)(F)F` [Example 7/1, (S)-(5-(4-(1,1,1,3,3,3-hexafluoro-2-hydroxypropan-2-yl)-2-(trifluoromethyl)phenyl)-2-(5-(2-hydroxypropan-2-yl)-1,3,4-oxadiazol-2-yl)thiazol-4-yl)(2-methylpyrrolidin-1-yl)methanone]?
IC50 [1]: 64 nM; IC50 (full-length human RORγt [2]): 6 nM; inhibition at 2 µM (full-length human RORγt [2]; read-out: RORγt (FL) Reporter Assay B or C, % inhibition (* at 2 μM), 2 μM compound concentration (footnote *)): 108%; Kd [3]: 1 nM; IC50 (full-length human RORγt [4]): 38 nM; inhibition at 2 µM (full-length human RORγt [4]): 102%

How did the IC50 (full-length human RORγt [2]) turn out when `C[C@H]1CCCN1C(=O)c1nc(-c2nnc(C(C)(C)O)n2C)sc1-c1ccc(C(O)(C(F)(F)F)C(F)(F)F)cc1C(F)(F)F` [Example 22, (S)-(5-(4-(1,1,1,3,3,3-Hexafluoro-2-hydroxypropan-2-yl)-2-(trifluoromethyl)phenyl)-2-(5-(2-hydroxypropan-2-yl)-4-methyl-4H-1,2,4-triazol-3-yl)thiazol-4-yl)(2-methylpyrrolidin-1-yl)methanone] was run?
The IC50 was 83 nM.

And the inhibition at 6 µM (full-length human RORγt [2])?
The inhibition at 6 µM was 87%.

What about the Kd [3] of the same compound?
The Kd was 5 nM.

What about the IC50 (full-length human RORγt [4]) of the same compound?
Its IC50 is 110 nM.

And the inhibition at 2 µM (full-length human RORγt [4])?
Its inhibition at 2 µM is 99%.

What does the source list for `C[C@H](NS(=O)(=O)c1ccc(-c2sc(-c3nnc(C(C)(C)O)n3C3CC3)nc2C(=O)N2CCC(F)(F)CC2)c(Cl)c1Cl)C(F)(F)F` [Example 23, (S)-2,3-Dichloro-4-(2-(4-cyclopropyl-5-(2-hydroxypropan-2-yl)-4H-1,2,4-triazol-3-yl)-4-(4,4-difluoropiperidine-1-carbonyl)thiazol-5-yl)-N-(1,1,1-trifluoropropan-2-yl)benzenesulfonamide]?
IC50 (full-length human RORγt [2]): 40 nM; inhibition at 6 µM (full-length human RORγt [2]): 109%; Kd [3]: 3.1 nM
